This note sets out measurements from ChEMBL document CHEMBL1201862, “PubChem BioAssay data set” (2004).

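Cells were grown in 96-well plates and exposed to each compound for 48 hours at five concentrations; endpoints were interpolated linearly between bracketing concentrations, or set to the highest concentration if not reached. The concentration for 50% growth inhibition is given as GI50.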 Activity calls are given as the source filed them. Cut-off read from the data, not from the text of the source: active = GI50 up to about 1.1 µM and inactive = higher.

Test systems include OVCAR-3; Malme-3M; HOP-92; SNB-75; MOLT-4; SR; M14; UACC-257; EKVX; OVCAR-8; HOP-62; NCI-H460; U-251; CCRF-CEM; SNB-19; SK-MEL-2; IGROV-1; SK-MEL-28; RXF 393; HL-60.
Test in all cases: NCI anticancer screen, dose series, 48 h

As for `CCC[C@H](O)[C@@H](CNc1cc(NC(C)=O)nc(NC(C)=O)n1)N(Cc1ccccc1)Cc1ccccc1`, the GI50 in the assay on OVCAR-3 is 18.9 µM (inactive); in the assay on Malme-3M it was 26.1 µM (inactive); with HOP-92 it was 34.4 µM (inactive); in the assay on SNB-75 it was 13.2 µM (inactive); in the assay on MOLT-4, 4.47 µM (inactive); in the assay on SR it was 49.5 µM (inactive). Also, the GI50 is 26.5 µM (inactive) with M14; 29.2 µM (inactive) with UACC-257; 12.1 µM (inactive) in the assay on EKVX; 13.7 µM (inactive) in the assay with OVCAR-8; 15.2 µM (inactive) in the assay with HOP-62; 21.8 µM (inactive) in the assay on NCI-H460. Moreover, the GI50 with U-251 is 47 µM (inactive); in the assay on CCRF-CEM, > 10 µM (inactive); with SNB-19, 39.3 µM (inactive); in the assay with SK-MEL-2 it was 27.4 µM (inactive); in the assay with IGROV-1, 12.8 µM (inactive); with SK-MEL-28, 42.9 µM (inactive).
On to `COC1=C(OC)C(=O)C(Cc2c(-c3ccccc3)nc3sc(Cl)cn23)=C(C)C1=O`, for which the GI50 in the assay with OVCAR-3 was 16.3 µM (inactive); with Malme-3M it was 16.5 µM (inactive); with MOLT-4, 1.96 µM (inactive); in the assay with SR, 22.9 µM (inactive); in the assay on M14, 15.8 µM (inactive); in the assay with UACC-257 it was 16 µM (inactive). In addition, the GI50 in the assay with EKVX was 20.7 µM (inactive); in the assay on OVCAR-8, 15.2 µM (inactive); with RXF 393, 17.1 µM (inactive); in the assay on HOP-62, 19.5 µM (inactive); in the assay on NCI-H460, 16 µM (inactive); in the assay with U-251 it was 18.5 µM (inactive). For the same compound, the GI50 in the assay with HL-60 is 7.91 µM (inactive); in the assay with CCRF-CEM it was 13.7 µM (inactive); with SNB-19 it was 18.2 µM (inactive); in the assay with SK-MEL-2, 15.6 µM (inactive); in the assay with IGROV-1, 14.9 µM (inactive); in the assay with SK-MEL-28, 13.8 µM (inactive).
For the compound `C/C(CN1C(=O)c2ccccc2C1=O)=N\NS(=O)(=O)c1ccc(Cl)cc1`, the GI50 in the assay with OVCAR-3, in the assay with Malme-3M, in the assay with SNB-75, in the assay on MOLT-4, in the assay with SR and in the assay with M14 was > 100 µM (inactive) each time. Also, the GI50 with UACC-257, in the assay with EKVX, in the assay on OVCAR-8, with HOP-62, with NCI-H460 and with U-251 was > 100 µM (inactive) in each case. The GI50 with HL-60, with CCRF-CEM, in the assay with SNB-19, in the assay on SK-MEL-2 and with IGROV-1 was > 100 µM (inactive) in each case.
In the case of `O=S1(=O)N=C(SCc2c[nH]c3ccccc23)N(c2ccccc2)c2ccncc21`, the GI50 was > 100 µM (inactive) in the assay on OVCAR-3; > 100 µM (inactive) with Malme-3M; 53.7 µM (inactive) in the assay on HOP-92; 21.5 µM (inactive) in the assay with SNB-75; 46.7 µM (inactive) with MOLT-4; 34.2 µM (inactive) in the assay with SR. The GI50 in the assay with M14, with UACC-257, in the assay on EKVX, in the assay with OVCAR-8, in the assay on HOP-62 and with NCI-H460 was > 100 µM (inactive) throughout. Moreover, the GI50 with U-251 is 87.5 µM (inactive); with HL-60, > 100 µM (inactive); in the assay with CCRF-CEM, 41.4 µM (inactive); in the assay on SNB-19, > 100 µM (inactive); in the assay on SK-MEL-2, > 100 µM (inactive); with SK-MEL-28, > 100 µM (inactive).
With `C[N+]12C=CC=C1C(N1CCCC1)c1sc(-c3ccc(Cl)cc3)cc12` (centres undefined), the GI50 was 13.6 µM (inactive) in the assay with OVCAR-3; 15.6 µM (inactive) in the assay with Malme-3M; 11.3 µM (inactive) in the assay with SNB-75; 16.9 µM (inactive) in the assay on MOLT-4; 11.6 µM (inactive) with SR; 17.1 µM (inactive) with M14. For the same compound, the GI50 in the assay with UACC-257 is 15.5 µM (inactive); with EKVX, 22.6 µM (inactive); in the assay on OVCAR-8, 16.9 µM (inactive); in the assay on RXF 393, 17.9 µM (inactive); in the assay on HOP-62, 17.5 µM (inactive); with NCI-H460 it was 18.1 µM (inactive). The GI50 in the assay on U-251 is 12.1 µM (inactive); in the assay with CCRF-CEM, 17.5 µM (inactive); with SNB-19, 13.6 µM (inactive); with SK-MEL-2, 8.39 µM (inactive); in the assay on IGROV-1 it was 16.9 µM (inactive); with SK-MEL-28 it was 17.2 µM (inactive).
As to `O=C1c2ccccc2C(=O)c2c1c1cc(O)ccc1n2Cc1ccc(Cl)cc1Cl`, the GI50 in the assay with Malme-3M is 22.8 µM (inactive); in the assay on MOLT-4 it was 15.3 µM (inactive); in the assay with SR, 3.61 µM (inactive); with M14 it was 15.9 µM (inactive); in the assay with UACC-257, 25.1 µM (inactive); in the assay with OVCAR-8 it was 4.57 µM (inactive). In addition, the GI50 in the assay with RXF 393 is 2.14 µM (inactive); in the assay with HOP-62, 2.61 µM (inactive); in the assay on NCI-H460, 3.63 µM (inactive); in the assay with U-251, 3.46 µM (inactive); with HL-60, 46.7 µM (inactive); with CCRF-CEM, 4.12 µM (inactive). In addition, the GI50 with SNB-19 was 13.4 µM (inactive); with SK-MEL-2, 16 µM (inactive); in the assay on IGROV-1 it was 6.98 µM (inactive); in the assay on SK-MEL-28, 17.3 µM (inactive).
Take `O=C(/C(=C\c1ccc(Cl)cc1)c1ccccc1)c1ccccc1`: the GI50 in the assay with Malme-3M is 57 µM (inactive); with HOP-92, 4.74 µM (inactive); in the assay with SNB-75 it was 88.9 µM (inactive); in the assay with MOLT-4 it was 51.3 µM (inactive); in the assay with SR, 40.8 µM (inactive); in the assay on M14, 73.5 µM (inactive). Moreover, the GI50 in the assay with UACC-257 is 42.5 µM (inactive); in the assay with EKVX, 39.3 µM (inactive); with OVCAR-8, > 100 µM (inactive); in the assay on HOP-62, 63.2 µM (inactive); in the assay with NCI-H460, 53.8 µM (inactive); in the assay on U-251 it was 65.5 µM (inactive). Also, the GI50 in the assay on HL-60 was 15 µM (inactive); in the assay on CCRF-CEM, > 100 µM (inactive); in the assay with SK-MEL-2 it was 11.7 µM (inactive); in the assay with IGROV-1 it was > 100 µM (inactive); in the assay with SK-MEL-28, > 100 µM (inactive).
Take `Cc1cc(C)c(C(=O)c2nnc3ccccc3c2N)c(C)c1`: the GI50 with OVCAR-3 is 16.3 µM (inactive); with HOP-92 it was 3.65 µM (inactive); with SNB-75 it was 27.5 µM (inactive); with MOLT-4 it was 45.4 µM (inactive); with SR, 24 µM (inactive); with M14 it was 13.9 µM (inactive). Moreover, the GI50 in the assay on UACC-257 is 37.9 µM (inactive); in the assay with HOP-62 it was 13.6 µM (inactive); with U-251, 28.7 µM (inactive); in the assay with HL-60, 7.55 µM (inactive); in the assay on CCRF-CEM, 31 µM (inactive); in the assay with SNB-19 it was 35.8 µM (inactive). Further, the GI50 is 14.9 µM (inactive) in the assay with SK-MEL-2, 15.3 µM (inactive) in the assay on IGROV-1 and 17 µM (inactive) in the assay on SK-MEL-28.
Consider `O=c1cnn(C2OC(CO)C(O)C(F)C2O)c(=O)[nH]1` (centres undefined), for which the GI50 in the assay with OVCAR-3 was > 100 µM (inactive); in the assay with Malme-3M it was > 100 µM (inactive); in the assay on HOP-92 it was > 100 µM (inactive); with SR, 8.55 µM (inactive); in the assay with M14, > 100 µM (inactive); in the assay on UACC-257 it was > 100 µM (inactive). For the same compound, the GI50 in the assay on EKVX, in the assay with OVCAR-8, in the assay with NCI-H460, in the assay on U-251, with HL-60 and in the assay on CCRF-CEM was > 100 µM (inactive) in each case. The GI50 with SNB-19, with SK-MEL-2, in the assay on IGROV-1 and with SK-MEL-28 was > 100 µM (inactive) each time.
On to `CCC(=O)NCC1(c2c[nH]c3ccccc23)SCCS1`, for which the GI50 was > 100 µM (inactive) in the assay with OVCAR-3; > 100 µM (inactive) with Malme-3M; > 100 µM (inactive) in the assay on HOP-92; > 100 µM (inactive) in the assay with SNB-75; 42.4 µM (inactive) in the assay on MOLT-4; > 100 µM (inactive) in the assay on SR. Moreover, the GI50 with M14, in the assay on UACC-257, with EKVX, in the assay with OVCAR-8, in the assay on HOP-62 and with NCI-H460 was > 100 µM (inactive) each time. The GI50 with U-251, with HL-60, with CCRF-CEM, with SNB-19, with SK-MEL-2 and in the assay with IGROV-1 was > 100 µM (inactive) in each case. The GI50 with SK-MEL-28 was > 100 µM (inactive).
With `Cc1cc(C)nc(NS(=O)(=O)c2ccc(Nc3c4ccccc4nc4c(C(=O)NCCN(C)C)ccc(Cl)c34)cc2)n1`, the GI50 is 7.64 µM (inactive) in the assay with OVCAR-3; 2.59 µM (inactive) in the assay with SNB-75; 0.255 µM (active) in the assay with MOLT-4; 0.259 µM (active) with SR; 2.9 µM (inactive) in the assay on M14; 4.4 µM (inactive) in the assay on EKVX. The GI50 with OVCAR-8 was 0.681 µM (active); in the assay on RXF 393 it was 2.09 µM (inactive); in the assay on HOP-62 it was 2.85 µM (inactive); in the assay with NCI-H460 it was 0.39 µM (active); in the assay with U-251, 1.66 µM (inactive); in the assay with HL-60, 1.44 µM (inactive). The GI50 in the assay with CCRF-CEM is 1.31 µM (inactive); in the assay with SNB-19, 1.45 µM (inactive); in the assay with SK-MEL-2 it was 3.61 µM (inactive); with IGROV-1 it was 2.06 µM (inactive); in the assay with SK-MEL-28, 5.4 µM (inactive).
